Laboratory results taken from article PMC8001898, “New Triterpene Glycosides from the Far Eastern Starfish Solaster pacificus and Their Biological Activity” (Biomolecules, 2021).
Where two headings read alike, the source gives them in different places.

What was measured:
[1] = test system: colorectal carcinoma HT-29 cells; assay: Soft agar colony formation assay, HT-29 cells; type: cell-based, human
Experimental: (§1) Compounds 1–6 were dissolved in sterile DMSO to prepare stock concentrations of 20 mM. Cells were treated with serially diluted compounds 1–6 (culture medium used as diluent) to give the intended final concentrations. The vehicle control is the cells treated with equivalent volume of DMSO (less than 0.5%) for all presented experiments.
(§2) Human cancer cells (2.4 × 10^4/mL) were seeded into 6-well plate and treated with compounds 1–6 (0.1, 0.5, and 1 µM) or cisplatin (3 µM) in 1 mL of 0.3% BME agar containing 10% FBS, 2 mM L-glutamine, and 25 µg/mL gentamicin. The cultures were maintained in a 37 °C, 5% CO2 incubator for 14 days, and the cell colonies were scored using a Motic microscope AE 20 (XiangAn, Xiamen, China) and ImageJ software bundled with 64-bit Java 1.8.0_112 (NIH, Bethesda, MD, USA).
(§3) Figure 3 Effect of compounds 1–6 on colony formation of human colorectal carcinoma HT-29, melanoma RPMI-7951, and breast cancer MDA-MB-231 cell lines. HT-29, RPMI-7951, and MDA-MB-231 cells (2.4 × 10^4 /mL) treated with/without investigated 1–6 (0.1, 0.5, and 1 µM) and subjected into a soft agar. The culture was maintained at 37 °C in a 5% CO2 atmosphere for 2 weeks. The colonies were counted under a microscope with the aid of the ImageJ software program (n = 6 for control and each compound, n—quantity of photos). The asterisks (* p < 0.05, ** p < 0.01, *** p < 0.001) indicate a significant decrease in colony formation in cells treated with compounds compared with the nontreated cells (control).

[2] = test system: breast cancer MDA-MB-231 cells; assay: Soft agar colony formation assay, MDA-MB-231 cells; type: cell-based, human
Experimental: as §1, §2, §3

melanoma RPMI-7951 cells [3] = assay: MTS cell viability assay, RPMI-7951 cells; type: cell-based, human
Experimental: (§4) Human embryonic kidney HEK 293 cells (ATCC® no. CRL-1573™), colorectal carcinoma HT-29 cells (ATCC® no. HTB-38™), melanoma RPMI-7951 cells (ATCC® no. HTB-66), and breast cancer MDA-MB-231 cells (ATCC® HTB-26™) were obtained from the American Type Culture Collection (Manassas, VA, USA). […] The cell cultures were maintained at 37 °C in humidified atmosphere containing 5% CO2. […] After three passages the cells were used for the experiments. […] Then samples were vacuum evaporated and dissolved in DMSO to their stock concentrations of 20 mM. Cells (1.0 × 10^4) were seeded in 96-well plates (Jet Biofil, Guangzhou, China) and cultured in 200 µL of complete culture medium for 24 h at 37 °C in 5% CO2 incubator.

[4] = test system: breast cancer MDA-MB-231 cells; assay: MTS cell viability assay, MDA-MB-231 cells; type: cell-based, human
Experimental: as §4

[5] = test system: colorectal carcinoma HT-29 cells; assay: MTS cell viability assay, HT-29 cells; type: cell-based, human
Experimental: as §4

[6] = test system: human embryonic kidney HEK 293 cells; assay: MTS cell viability assay, HEK 293 cells; type: cell-based
Experimental: as §4

melanoma RPMI-7951 cells [7] = assay: Soft agar colony formation assay, RPMI-7951 cells; type: cell-based, human
Experimental: as §1, §2, §3

[8] = test system: HEK 293, HT-29, RPMI-7951, and MDA-MB-231 cells; assay: MTS cell viability assay, statements on all tested cell lines; type: cell-based, human; settings: individual compounds, 24 h, concentrations range up to 40 µM
Experimental: Cells (1.0 × 10^4) were seeded in 96-well plates (Jet Biofil, Guangzhou, China) and cultured in 200 µL of complete culture medium for 24 h at 37 °C in 5% CO2 incubator. […] Cells were also treated by cisplatin (positive control) at 1, 5, 10, 50, 100 µM for 24 and 48 h. Subsequently, the cells were incubated with 15 µL MTS reagent for 3 h, and the absorbance of each well was measured at 490/630 nm using Power Wave XS microplate reader (BioTek, Wynusky, VT, USA).

[9] = test system: HT-29, RPMI-7951, and MDA-MB-231 cells; assay: Soft agar colony formation assay, statements on all types of cancer cells; type: cell-based, human; settings: nontoxic concentrations
Experimental: as §1, §2
as §3, with “The asterisks (* p < 0.05, ** p < 0.01, *** p < 0.001) indicate a significant decrease in colony formation in cells treated with compounds compared with the nontreated cells (control).” left out

[10] = concentrations of 0.5 µM and 1 µM, soft agar
[11] = nontoxic concentration of 0.5 µM

In the case of CO[C@@H]1[C@@H](O)[C@H](O[C@@H]2[C@@H](O)[C@H](O[C@H]3[C@H](O)[C@@H](O[C@@H]4OC[C@@H](O)[C@H](O)[C@H]4O)[C@H](O[C@H]4[C@H](O[C@H]5CC[C@]6(C)[C@@H]7CCC89C(=O)O[C@@](C)(/C=C/C=C(C)C)[C@H]8[C@@H](OC(C)=O)C[C@@]9(C)C7=CC[C@H]6C5(C)C)OC[C@@H](O)[C@@H]4O)O[C@@H]3C)O[C@H](CO)[C@H]2O)OC[C@H]1O (some centres unmarked) [Compound 5, cucumarioside C2], the “colony growth of HT-29 cells (in words)” value [1, 10] is reported as “almost completely suppressed”, the “colony formation of HT-29 cells (in words)” value [1, 11] is reported as “almost completely suppressed” and the “colony growth of MDA-MB-231 cells (in words)” value [2, 10] is reported as “almost completely suppressed”. The “colony formation of MDA-MB-231 cells (in words)” value [2, 11] was “almost completely suppressed”, the IC50 (melanoma RPMI-7951 cells [3]; Homo sapiens, RPMI-7951, 24 h, read-out: Inhibiting Concentration, (IC50), RPMI-7951, a) was 5.9 ± 0.9 µM and the IC50 ([4]; Homo sapiens, MDA-MB-231, 24 h, read-out: Inhibiting Concentration, (IC50), MDA-MB-231, a) was 4.4 ± 0.09 µM. For the same compound, the IC50 ([5]; Homo sapiens, HT-29, 24 h, read-out: Inhibiting Concentration, (IC50), HT-29, a) was 5.5 ± 0.6 µM, the IC50 ([6]; Homo sapiens, HEK293, 24 h, read-out: Inhibiting Concentration, (IC50), HEK 293, a) was 7.9 ± 0.9 µM and the “colony growth of RPMI-7951 cells (in words)” value (melanoma RPMI-7951 cells [7]; [10]) was “almost completely suppressed”. For the same compound, the “colony formation of RPMI-7951 cells (in words)” value (melanoma RPMI-7951 cells [7]; [11]) was “almost completely suppressed”.
Compound N.N.[Cl][Pt][Cl] [cisplatin, reference compound] has an IC50 (melanoma RPMI-7951 cells [3]; after 48 h of treatment (data not shown), read-out: IC50 against RPMI-7951 cells) of 48.4 µM, an IC50 ([4]; after 48 h of treatment (data not shown), read-out: IC50 against MDA-MB-231 cells) of 7.8 µM and an IC50 ([5]; after 48 h of treatment (data not shown), read-out: IC50 against HT-29 cells) of 95.4 µM. The IC50 ([6]; after 48 h of treatment (data not shown), read-out: IC50 against HEK 293 cells) was 64.6 µM.
For CO[C@@H]1[C@@H](O)[C@H](O[C@@H]2[C@@H](O)[C@H](O[C@H]3[C@H](O)[C@@H](O[C@@H]4OC[C@@H](O)[C@H](O)[C@H]4O)[C@H](O[C@H]4[C@H](O[C@H]5CC[C@]6(C)[C@@H]7CCC89C(=O)O[C@@](C)(/C=C/C=O)[C@H]8[C@@H](OC(C)=O)C[C@@]9(C)C7=CC[C@H]6C5(C)C)OC[C@@H](O)[C@@H]4O)O[C@@H]3C)O[C@H](CO)[C@H]2O)OC[C@H]1O (stereo partly drawn) [Compound 1, 3β-O-{3-O-methyl-β-D-xylopyranosyl-(1→3)-β-D-glucopyranosyl-(1→4)-[β-D-xylopyranosyl-(1→2)]-β-D-quinovopyranosyl-(1→2)-β-D-xylopyranosyl}-16β-acetoxy-25,26,27-trinorholosta-7,22-dien-24-al], the “decrease of number of colonies of HT-29” value ([1]; 1 µM, soft agar, 14 days) was 21%, the “decrease of number of colonies of MDA-MB-231” value ([2]; 1 µM, soft agar, 14 days) was 28% and the IC50 (melanoma RPMI-7951 cells [3]; Homo sapiens, RPMI-7951, 24 h, individual compounds, 24 h, MTS, read-out: Inhibiting Concentration, (IC50), RPMI-7951, a) was over 40 µM. The IC50 ([4]; Homo sapiens, MDA-MB-231, 24 h, individual compounds, 24 h, MTS, read-out: Inhibiting Concentration, (IC50), MDA-MB-231, a) was over 40 µM, the IC50 ([5]; Homo sapiens, HT-29, 24 h, individual compounds, 24 h, MTS, read-out: Inhibiting Concentration, (IC50), HT-29, a) was over 40 µM and the IC50 ([6]; Homo sapiens, HEK293, 24 h, individual compounds, 24 h, MTS, read-out: Inhibiting Concentration, (IC50), HEK 293, a) was over 40 µM. The “cytotoxic activity against the tested cell lines (in words)” value [8] was “nontoxic”, the “colony formation of all types of cancer cells (in words)” value [9] was “slightly inhibited” and the “decrease of number of colonies of RPMI-7951” value (melanoma RPMI-7951 cells [7]; 1 µM, soft agar, 14 days) was 27%.
